PubChem BioAssay (NCI)
Where “and” joins values, the source holds several entries; their conditions need not be identical. Equal entries are not always repeated.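 Growth conditions: 96-well plates. Treatment: test compound, 48 hours, 5 concentrations. Analysis: linear interpolation between bracketing concentrations; unreached endpoints set to highest concentration. At the GI50, growth is halved. TGI marks complete inhibition of growth.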

Assays:
Experiment in all cases: NCI-60 cell line screen, 48 h
SF-295 CNS = tested on: SF-295 CNS
HCT-15 colon = tested on: HCT-15 colon
TK-10 renal = tested on: TK-10 renal
IGROV1 ovarian = tested on: IGROV1 ovarian
ACHN renal = tested on: ACHN renal
SF-539 CNS = tested on: SF-539 CNS
KM12 colon = tested on: KM12 colon
SK-OV-3 ovarian = tested on: SK-OV-3 ovarian
SNB-75 CNS = tested on: SNB-75 CNS
OVCAR-4 ovarian = tested on: OVCAR-4 ovarian

SMILES | TGI (SF-295 CNS) | GI50 (HCT-15 colon) | TGI (HCT-15 colon) | GI50 (TK-10 renal) | TGI (TK-10 renal) | GI50 (IGROV1 ovarian) | TGI (IGROV1 ovarian) | GI50 (ACHN renal) | TGI (ACHN renal) | GI50 (SF-539 CNS) | TGI (SF-539 CNS) | GI50 (KM12 colon) | TGI (KM12 colon) | GI50 (SK-OV-3 ovarian) | TGI (SK-OV-3 ovarian) | GI50 (SNB-75 CNS) | TGI (SNB-75 CNS) | GI50 (OVCAR-4 ovarian) | TGI (OVCAR-4 ovarian) | GI50 (SF-295 CNS)
NNc1c(C(N)=O)c2c(N)ncnc2n1C1OC(CO)C(O)C1O (stereo not drawn) | 9.44 µM and 2.91 µM | 0.0292 µM | 1.5 µM and 3.04 µM | 0.0243 µM and 0.0434 µM | 1.14 µM and 1.49 µM | 0.0276 µM and 0.0476 µM | 1.12 µM and 3.54 µM | 0.0167 µM | 0.101 µM and 0.499 µM | 0.0529 µM and 0.0718 µM | 1.15 µM and 0.273 µM | 0.0453 µM and 0.0475 µM | 12.4 µM | < 0.0137 µM and 0.0273 µM | 0.413 µM and 0.361 µM | 0.106 µM | 1.09 µM and 0.448 µM | < 0.0105 µM | 0.776 µM and 0.16 µM | 
CCCC1C[C@H]2CCCCN2[C@H]2CCCN12 (stereo partly drawn) | > 100 µM |  | > 75.5 µM |  | > 100 µM |  | > 100 µM |  | > 100 µM |  | > 100 µM |  | > 100 µM |  | > 100 µM |  | > 100 µM |  | > 100 µM | 
Cc1cc(NC(=O)NCc2ccc(N3C(N)=NC(N)=NC3(C)C)cc2)ccc1S(=O)(=O)F | > 100 µM | 11.2 µM | > 100 µM | 5.5 µM | > 100 µM | 0.388 µM | > 100 µM | 46.2 µM | > 100 µM | 2.38 µM | > 69.2 µM | 0.665 µM | > 100 µM | 36.6 µM | > 100 µM | > 32.3 µM | > 100 µM | 9.31 µM | > 100 µM | 1.57 µM
Cc1ccc(-c2nc(NCCOCCOCCN)nc(N3CCN(c4ccccn4)CC3)n2)cc1 | 38.6 µM | 10.1 µM | 29.8 µM | 18.5 µM | 34.9 µM | 19.4 µM | 38 µM | 14.7 µM | 32.4 µM | 16.8 µM | 35.1 µM | 16.6 µM | 32.9 µM | 19.1 µM | 35.6 µM | 13.9 µM | 27.4 µM | 14.7 µM | 29.3 µM | 18.4 µM
CCc1ccc2c(c1)C(=O)c1c-2n(CCCN)c(=O)c2cc(OC)c(OC)cc12 | 3.08 µM | 1.59 µM | 3.01 µM | 1.74 µM | 3.28 µM | 1.76 µM | 3.36 µM | 1.68 µM | 3.07 µM | 1.64 µM | 3.07 µM | 1.41 µM | 3.15 µM | 2 µM | 3.58 µM | 1.96 µM | 4.3 µM | 1.74 µM | 3.2 µM | 1.59 µM
CCn1c(-c2nonc2N)nc2ccccc21 | > 25 µM | > 25 µM | > 25 µM | 7.32 µM | > 25 µM | > 25 µM | > 25 µM | > 25 µM | > 25 µM | > 25 µM | > 25 µM | > 25 µM | > 25 µM | > 25 µM | > 25 µM | > 25 µM | > 25 µM | > 25 µM | > 25 µM | > 25 µM
Clc1ccc2c(NCCNc3nc(N4CCOCC4)nc4ccccc34)ccnc2c1 | 3.24 µM | 2.49 µM | 8.47 µM | 1.83 µM | 3.39 µM | 2.88 µM | 10.2 µM | 1.75 µM | 3.49 µM | 1.73 µM | 3.34 µM | 2.66 µM | 8.16 µM | 1.85 µM | 3.85 µM | 1.44 µM | 2.85 µM | 2.46 µM | 6.17 µM | 1.75 µM
COc1ccc(-c2nsc3c2NC(=O)CC3c2ccsc2)cc1 (stereo not drawn) | > 51.5 µM | 0.101 µM | > 100 µM | 13.8 µM | > 100 µM | 0.984 µM | > 100 µM | 1.06 µM | > 100 µM | 0.266 µM |  | 0.0715 µM | > 34 µM | 0.313 µM | 13.7 µM | 0.119 µM | > 100 µM | 3.47 µM | > 100 µM | 0.211 µM
Nc1ncn([C@H]2CC(O)[C@@H](CO)S2)c(=O)n1 (stereo partly drawn) | > 100 µM | 1.71 µM | > 100 µM | 36.3 µM | > 100 µM | 10.2 µM | > 100 µM | 0.266 µM | > 100 µM | 16.7 µM | > 100 µM | 3.27 µM | > 100 µM | 28.9 µM | > 100 µM | 53.9 µM | > 100 µM | > 100 µM | > 100 µM | 35.5 µM
S=c1ssnc1-c1cc2ccccc2o1 | 33.8 µM | 11.5 µM | 25.5 µM | 22.1 µM | 45.9 µM | 4.09 µM | 29 µM | 15.2 µM | 38.8 µM | 15.3 µM | 29.8 µM | 14.1 µM | 35.1 µM | 18.7 µM | 39.2 µM | 23.3 µM | 95.8 µM | 21.6 µM | > 100 µM | 14.3 µM
Cc1nc2c(C)ccc([N+](=O)[O-])c2c(NCCCN(C)C)c1C | > 100 µM |  | > 54.2 µM |  | > 55.7 µM |  | > 100 µM |  | > 100 µM |  | > 100 µM |  | > 100 µM |  | > 100 µM |  | > 100 µM |  | > 100 µM | 
CC(C)=C[C@@H]1C[C@H](C)[C@H]2CC[C@H](C)c3c(O)c(OC4OC(C)C(O)C(O)C4O)c(C)c1c32 (stereo partly drawn) | 30.9 µM | 14.5 µM | 27.6 µM | 16.3 µM | 30.2 µM | 13.7 µM | 26.8 µM | 14.1 µM | 27.1 µM | 17.9 µM | 33 µM | 2.63 µM | 8.16 µM | 18.9 µM | 32.9 µM | 14.4 µM | 27.7 µM | 12.1 µM | 24.7 µM | 15.9 µM
COc1cc(-c2nc(-c3ccccc3)c(-c3ccccc3)[nH]2)cc(OC)c1O | 45.5 µM | 13.3 µM | 41.4 µM | 25.1 µM | 50.5 µM | 26.9 µM | 61.2 µM | 14.2 µM | 33.1 µM | 15.8 µM | 30.8 µM | 15.1 µM | 30.4 µM | 23.1 µM | 47.8 µM | 11.2 µM | 26.4 µM | 17.6 µM | 56.8 µM | 17.1 µM
